Test results from ChEMBL document CHEMBL2331204, “Fluorinated N,N'-diarylureas as AMPK activators” (Bioorg Med Chem Lett, 2013).
Calls of active or inactive are those of the source. No cut-off for these calls is given here.

Legend:
[1] = molecular target: 5'-AMP-activated protein kinase catalytic subunit alpha-1 (Homo sapiens) (UniProt Q13131); assay: Activation of AMPKalpha in human LS 174T cells assessed as phosphorylation at T172 at 1 to 3 uM by Western blotting analysis relative to urea-3,4-diCl; assay type: cell-based; conditions: LS174T
Chain of 5'-AMP-activated protein kinase catalytic subunit alpha-1 (Homo sapiens) (Q13131 whole entry, looked up): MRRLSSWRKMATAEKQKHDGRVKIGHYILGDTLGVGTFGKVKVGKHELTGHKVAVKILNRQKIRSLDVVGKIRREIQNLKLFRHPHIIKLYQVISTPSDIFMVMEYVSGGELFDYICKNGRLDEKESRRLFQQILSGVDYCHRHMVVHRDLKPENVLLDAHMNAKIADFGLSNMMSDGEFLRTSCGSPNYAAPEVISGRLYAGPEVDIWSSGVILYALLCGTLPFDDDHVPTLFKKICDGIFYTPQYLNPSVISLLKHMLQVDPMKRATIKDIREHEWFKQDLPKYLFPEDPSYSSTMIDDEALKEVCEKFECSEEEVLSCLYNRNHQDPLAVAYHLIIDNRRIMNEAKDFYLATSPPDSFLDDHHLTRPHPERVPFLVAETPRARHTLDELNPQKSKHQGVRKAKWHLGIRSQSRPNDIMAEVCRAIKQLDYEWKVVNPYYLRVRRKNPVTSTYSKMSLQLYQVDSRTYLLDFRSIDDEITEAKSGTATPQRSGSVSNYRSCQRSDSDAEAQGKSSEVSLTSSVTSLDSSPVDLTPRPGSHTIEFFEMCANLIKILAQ

[2] = system: LS174T; assay: Cytotoxicity against human LS 174T cells assessed as growth inhibition after 2 to 4 days; assay type: functional, cell-based
[3] = system: SW480; assay: Cytotoxicity against human SW480 cells assessed as growth inhibition after 2 to 4 days; assay type: functional, cell-based
[4] = molecular target: 5'-AMP-activated protein kinase catalytic subunit alpha-1 (Homo sapiens) (UniProt Q13131); assay: Activation of AMPKalpha in human LS 174T cells assessed as phosphorylation at T172 at 1 to 3 uM by Western blotting analysis; assay type: cell-based; conditions: LS174T
[5] = system: LS174T; assay: Inhibition of p70S6K in human LS 174T cells assessed as decrease in S6 phosphorylation by Western blotting analysis; assay type: cell-based
[6] = system: LS174T; assay: Inhibition of p70S6K phosphorylation in human LS 174T cells by Western blotting analysis; assay type: cell-based
[7] = system: LS174T; assay: Activation of AKT in human LS 174T cells assessed as phosphorylation at Ser473 at 3 uM by Western blotting analysis; assay type: cell-based

fold change (FC) [1]	Compound	further results
0.72	O=C(Nc1ccc(SC(F)(F)F)cc1)Nc1cccc(Cl)c1F	
0.8	O=C(Nc1ccc(OC(F)(F)F)cc1)Nc1cc(F)c(F)c(F)c1F	
1.21	O=C(Nc1ccc(SC(F)(F)F)cc1)Nc1cc(F)c(F)cc1F	
0.82	O=C(Nc1ccc(OC(F)(F)F)cc1)Nc1cc(Cl)cc(Cl)c1	
2.48	O=C(Nc1ccc(SC(F)(F)F)cc1)Nc1cc(F)c(F)c(F)c1F	
2.02	O=C(Nc1ccc(SC(F)(F)F)cc1)Nc1cc(F)c(F)c(F)c1	growth inhibition (GI) [2]: Active; growth inhibition (GI) [3]: Active
0.71	O=C(Nc1ccc(Cl)cc1)Nc1ccc(SC(F)(F)F)cc1	
0.93	O=C(Nc1ccc(SC(F)(F)F)cc1)Nc1ccc(SC(F)(F)F)c(Cl)c1	
1.05	O=C(Nc1ccc(SC(F)(F)F)cc1)Nc1ccc(F)c(Cl)c1	
2.6	O=C(Nc1ccc(OC(F)(F)F)cc1)Nc1ccc(SC(F)(F)F)c(Cl)c1	
1.64	O=C(Nc1ccc(SC(F)(F)F)cc1)Nc1ccc(Cl)c(C(F)(F)F)c1	

Second part, the compound before the results:

Compound	fold change (FC) [1]	further results
O=C(Nc1ccc(SC(F)(F)F)cc1)Nc1cc(F)cc(F)c1	1.14	
O=C(Nc1ccc(SC(F)(F)F)cc1)Nc1ccc(F)c(C(F)(F)F)c1	1.52	
O=C(Nc1ccc(OC(F)(F)F)cc1)Nc1ccc(C(F)(F)F)cc1	2.37	
O=C(Nc1cc(F)cc(F)c1)Nc1cccc(SC(F)(F)F)c1	1.83	
O=C(Nc1ccc(SC(F)(F)F)cc1)Nc1ccc(F)c(F)c1	1.11	
O=C(Nc1ccc(SC(F)(F)F)cc1)Nc1cccc(F)c1	0.74	
O=C(Nc1ccc(C(F)(F)F)cc1)Nc1cc(F)c(F)c(F)c1	4	
O=C(Nc1ccc(SC(F)(F)F)cc1)Nc1cc(Cl)cc(Cl)c1	1.59	
O=C(Nc1ccc(OC(F)(F)F)cc1)Nc1cc(F)c(F)c(F)c1	0.99	
O=C(Nc1ccc(OC(F)(F)F)cc1)Nc1cc(Cl)c(Cl)c(Cl)c1	0.96	
O=C(Nc1ccc(OC(F)(F)F)cc1)Nc1cc(F)cc(F)c1	1.44	
O=C(Nc1cc(Cl)cc(Cl)c1)Nc1cccc(SC(F)(F)F)c1	1.94	
CNC(=O)c1cc(Oc2ccc(NC(=O)Nc3ccc(Cl)c(C(F)(F)F)c3)cc2)ccn1		Activity [4]: inactive; inhibition [5]: Active; inhibition [6]: Active
O=C(Nc1ccc(SC(F)(F)F)cc1)Nc1c(F)c(F)c(C(=O)O)c(F)c1F	0.86	
O=C(Nc1ccc(C(F)(F)F)cc1)Nc1cccc(SC(F)(F)F)c1	2.16	
O=C(Nc1ccc(SC(F)(F)F)cc1)Nc1ccc(C(F)(F)F)cc1	1.19	
O=C(Nc1ccc(SC(F)(F)F)cc1)Nc1ccc(Cl)c(Cl)c1		growth inhibition (GI) [2]: Active; growth inhibition (GI) [3]: Active; Activity [4]: Active; inhibition [5]: Active; inhibition [6]: Active; Activity [7]: inactive
N#Cc1ccc(NC(=O)Nc2ccc(SC(F)(F)F)cc2)cc1	1.05	
N#Cc1cc(NC(=O)Nc2ccc(SC(F)(F)F)cc2)ccc1F	0.96	
O=C(Nc1ccc(SC(F)(F)F)cc1)Nc1cc(Cl)c(Cl)c(Cl)c1	2.32	
